The source of these data is US7015246B2, “Benzofuran derivatives” (Bayer Aktiengesellschaft, priority 2001, dated 2006).

This test has as its system thyroid hormone-regulated promoter (TRE) luciferase in HepG2 hepatocarcinoma cell. Briefly: T3 promoter assay cell test (luciferase reporter). Particulars: Homo sapiens; stably transfected HepG2 cells, luciferase induction; one range stated for the listed examples together; read-out: effect in the T3 promoter assay cell test. It is filed as cell-based. The method, then: The activity of the compounds according to the invention can be tested, for example, in vitro using the T3 Promoter Assay Cell test, which is described below:
The test is carried out using a stably transfected human HepG2 hepatocarcinoma cell which expresses a luciferase gene under the control of a thyroid hormone-regulated promoter. The vector which is used for the transfection carries a minimal thymidine kinase promoter, containing a thyroid hormone-responsive element (TRE) which consists of two inverted palindromes of in each case 12 bp and an 8 bp spacer, upstream of the luciferase gene.
For the test, the cell cultures are sown, in Eagle's minimal essential medium containing the following additions: glutamine, tricine [N(tris-(hydroxymethyl)-methyl)glycine], sodium pyruvate, non essential amino acids, (L-Ala, L-Asn, L-Asp, L-Pro, L-Ser, L-Glu, Gly), insulin, selenium and transferrin, in 96-well plates. The cultures are grown for 48 hours at 37° C. and under a 10% CO2 atmosphere. After that, serial dilutions of test substance or reference compound (T3, T4) and costimulator retinoic acid are added to the test cultures and the latter are incubated for a further 48 or 72 hours as before. Each substance concentration is tested in four replicates. In order to determine the luciferase which is induced by T3 or other substances, the cells are then lyzed by adding a buffer containing Triton and luciferin (from Promega) and immediately measured luminometrically.

The structures appear in SMILES notation.

As to `Cc1cc2oc(C(=O)O)cc2c(C)c1Oc1ccc(O)c(C(C)C)c1` [Example 17, 5-(4-Hydroxy-3-isopropylphenoxy)-4,6-dimethyl-1-benzofuran-2-carboxylic acid], the EC50 was in the range of 0.5 to 240 nM. With `CCOC(=O)Cc1coc2c(C)c(Oc3ccc(OC)c(C(C)C)c3)c(C)cc12` [Example 18, Ethyl 2-[6-(3-isopropyl-4-methoxyphenoxy)-5,7-dimethyl-1-benzofuran-3-yl]acetate], the EC50 is 0.5 to 240 nM. In the case of `CCOC(=O)CC1Cc2c(cc(C)c(Oc3ccc(O)c(C(C)C)c3)c2C)O1` (stereo not shown) [Example 28, Ethyl [5-(4-hydroxy-3-isopropylphenoxy)-4,6-dimethyl-2,3-dihydro-1-benzofuran-2-yl]acetate], the EC50 lay in the range of 0.5 to 240 nM. With `CCOC(=O)c1cc2c(Br)c(Oc3ccc(O)c(C(=O)c4ccc(F)cc4)c3)c(Br)cc2o1` [Example 32, Ethyl 4,6-dibromo-5-[3-(4-fluorobenzoyl)-4-hydroxyphenoxy]-1-benzofuran-2-carboxylate] the figure was 0.5 to 240 nM.
